Measured values taken from patent US11091485B2, “Imidazo[1′,2′:1,6]pyrido[2,3-d]pyrimidine compound as protein kinase inhibitor” (SHENGKE PHARMACEUTICALS (JIANGSU) LTD., priority 2017, dated 2021).
Values belong to the molecule of their own block, whether it stands above or below them.

Legend:
CDK6/cyclin D1 = CDK6/cyclin D1 (Homo sapiens (Human), UniProt Q00534); assay: Biochemical kinase inhibition test, CDK6/cyclin D1 (similar method); conditions: for IC50: CDK6/cyclin D1, 10 μM ATP, read-out: CDK6/Cyelin D1 IC50; for selectivity for CDK6/cyclin D1 relative to CDK4/cyclin D1: enzyme inhibitory activity, CDK6/cyclin D1 vs CDK4/cyclin D1
Sequence of CDK6/cyclin D1 (Q00534 whole entry, species assumed): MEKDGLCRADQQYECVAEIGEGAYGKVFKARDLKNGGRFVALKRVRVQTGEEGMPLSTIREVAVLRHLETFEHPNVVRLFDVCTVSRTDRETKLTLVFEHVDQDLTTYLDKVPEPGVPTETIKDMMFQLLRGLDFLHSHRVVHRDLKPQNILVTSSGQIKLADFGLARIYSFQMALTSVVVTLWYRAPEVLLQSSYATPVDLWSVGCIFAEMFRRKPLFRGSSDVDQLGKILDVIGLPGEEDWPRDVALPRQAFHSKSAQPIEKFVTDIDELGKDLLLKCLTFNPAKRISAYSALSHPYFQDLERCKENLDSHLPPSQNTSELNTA
Sequence of CDK6/cyclin D1 (P24385 whole entry partner, species assumed): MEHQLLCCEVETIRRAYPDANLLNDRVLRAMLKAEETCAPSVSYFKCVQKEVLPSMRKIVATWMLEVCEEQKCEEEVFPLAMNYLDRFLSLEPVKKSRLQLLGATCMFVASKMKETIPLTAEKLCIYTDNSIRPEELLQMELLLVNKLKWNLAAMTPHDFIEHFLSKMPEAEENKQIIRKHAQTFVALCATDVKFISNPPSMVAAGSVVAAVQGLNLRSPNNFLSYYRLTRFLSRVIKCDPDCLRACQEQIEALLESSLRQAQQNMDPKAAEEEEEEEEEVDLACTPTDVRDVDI
Method: (§1) Potency determination of biochemical kinase inhibition test. Kinase activity test and IC50 determination. […] The kinase reaction was initiated by adding 1 μg (1.5 μM) of recombinant retinoblastoma protein, […] and 10μ Ci γ-32P-ATP. The reaction was incubated at 30° C. for 20 minutes, and was terminated by adding 2×Laemmli sample buffer, heated at 95° C. for three minutes, and the resulting solution was dissolved with 12% acrylamide SDS-PAGE and autoradiographed. A densitometer (Bio-Rad) was used to quantify the corresponding phosphorylated substrate protein bands. […] These reactions took place in the presence of 10 μM ATP.

CDK4/Cyclin D1 = CDK4/Cyclin D1 (Homo sapiens (Human), UniProt P11802); assay: Biochemical kinase inhibition test, CDK4/Cyclin D1 (32P-ATP, Rb substrate); conditions: recombinant CDK4/Cyclin D1; 10 μM ATP; read-out: CDK4/Cydin D1 IC50
Sequence of CDK4/Cyclin D1 (P11802 whole entry): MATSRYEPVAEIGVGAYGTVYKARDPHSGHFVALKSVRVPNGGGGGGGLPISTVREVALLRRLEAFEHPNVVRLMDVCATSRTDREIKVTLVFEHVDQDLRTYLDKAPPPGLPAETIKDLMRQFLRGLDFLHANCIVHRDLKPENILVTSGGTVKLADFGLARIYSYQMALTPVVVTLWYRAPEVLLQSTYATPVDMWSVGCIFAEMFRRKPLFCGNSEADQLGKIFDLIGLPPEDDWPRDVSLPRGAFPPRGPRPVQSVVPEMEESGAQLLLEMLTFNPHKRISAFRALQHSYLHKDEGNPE
Sequence of CDK4/Cyclin D1 (P24385 whole entry partner): as the sequence (P24385 whole entry partner, species assumed) above
Method: as §1

PIM1 = PIM1 (Homo sapiens (Human), UniProt P11309); assay: Enzyme inhibition PIM1; assay type: biochemical; conditions: read-out: IC50 value of inhibition against PIM1
Sequence of PIM1 (P11309 whole entry, species assumed): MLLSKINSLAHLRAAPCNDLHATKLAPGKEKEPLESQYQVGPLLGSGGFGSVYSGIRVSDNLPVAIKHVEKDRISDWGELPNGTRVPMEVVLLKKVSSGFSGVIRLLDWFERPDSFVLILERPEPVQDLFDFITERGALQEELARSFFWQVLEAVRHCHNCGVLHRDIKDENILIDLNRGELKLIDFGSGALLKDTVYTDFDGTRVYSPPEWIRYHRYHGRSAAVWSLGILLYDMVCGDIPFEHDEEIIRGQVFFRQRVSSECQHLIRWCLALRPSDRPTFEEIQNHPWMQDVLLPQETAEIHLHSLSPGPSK
Method: (§2) In addition, the inhibitory activities of the compounds of the present disclosure against enzyme ABL1, FLT3 and PIM1 were also tested.

FLT3 = FLT3 (Homo sapiens (Human), UniProt P36888); assay: Enzyme inhibition FLT3; assay type: biochemical; conditions: read-out: IC50 value of inhibition against FLT3
Sequence of FLT3 (P36888 27-993, species assumed): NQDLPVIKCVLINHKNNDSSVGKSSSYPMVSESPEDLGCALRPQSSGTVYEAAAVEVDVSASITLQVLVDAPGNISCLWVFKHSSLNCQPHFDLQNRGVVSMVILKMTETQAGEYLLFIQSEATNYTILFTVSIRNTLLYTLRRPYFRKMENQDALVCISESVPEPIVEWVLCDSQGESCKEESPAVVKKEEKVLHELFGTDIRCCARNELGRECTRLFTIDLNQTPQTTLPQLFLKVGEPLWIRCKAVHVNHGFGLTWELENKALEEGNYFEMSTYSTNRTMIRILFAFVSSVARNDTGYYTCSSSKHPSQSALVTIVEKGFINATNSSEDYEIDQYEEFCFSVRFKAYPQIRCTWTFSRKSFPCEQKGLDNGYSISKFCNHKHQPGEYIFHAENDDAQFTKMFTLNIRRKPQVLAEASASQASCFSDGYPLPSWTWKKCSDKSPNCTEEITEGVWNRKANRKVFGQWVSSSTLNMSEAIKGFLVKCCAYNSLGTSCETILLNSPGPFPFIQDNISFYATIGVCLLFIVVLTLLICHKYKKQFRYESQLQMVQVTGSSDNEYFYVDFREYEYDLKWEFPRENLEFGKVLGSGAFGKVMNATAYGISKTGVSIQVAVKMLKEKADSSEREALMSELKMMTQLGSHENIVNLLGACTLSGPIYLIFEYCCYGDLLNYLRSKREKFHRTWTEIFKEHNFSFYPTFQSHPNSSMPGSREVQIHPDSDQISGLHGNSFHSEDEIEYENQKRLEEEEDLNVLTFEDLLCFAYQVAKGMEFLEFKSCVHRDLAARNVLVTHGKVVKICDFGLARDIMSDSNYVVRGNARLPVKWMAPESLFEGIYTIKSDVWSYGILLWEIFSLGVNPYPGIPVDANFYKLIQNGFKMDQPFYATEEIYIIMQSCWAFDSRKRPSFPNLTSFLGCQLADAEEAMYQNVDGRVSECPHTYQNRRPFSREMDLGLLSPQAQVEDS
Method: as §2

SMILES: CC(C)c1cnc2ccc3cnc(Nc4ccc(N5CC6(CCNCC6)C5)cn4)nc3n12 [Compound I-26]
- IC50 (CDK6/cyclin D1): 20 to 50 nM
- IC50 (CDK4/Cyclin D1): 20 to 50 nM

SMILES: CC(C)c1cnc2ccc3cnc(Nc4ccc(N5CCC6(CC5)CNC6)cn4)nc3n12 [Compound I-25]
- IC50 (CDK6/cyclin D1): 20 to 50 nM
- IC50 (CDK4/Cyclin D1): 20 to 50 nM

SMILES: CC(C)c1cnc2ccc3cnc(Nc4ccc(N5C[C@@H](C)O[C@@H](C)C5)cn4)nc3n12 [Compound I-21]
- IC50 (CDK6/cyclin D1): 10 to 20 nM
- selectivity for CDK6/cyclin D1 relative to CDK4/cyclin D1 (CDK6/cyclin D1): 2-3 times
- IC50 (CDK4/Cyclin D1): 20 to 50 nM

SMILES: C[C@@H]1CN(c2ccc(Nc3ncc4ccc5ncc(C6CCCC6)n5c4n3)nc2)C[C@H](C)N1 [Compound I-35]
- IC50 (CDK6/cyclin D1): 5 to 10 nM
- IC50 (CDK4/Cyclin D1): 5 to 10 nM

SMILES: CC(C)c1cnc2ccc3cnc(Nc4ccc(N5CCOCC5)cn4)nc3n12 [Compound I-17]
- IC50 (PIM1): < 50 nM
- IC50 (FLT3): < 5 nM
- IC50 (CDK6/cyclin D1): < 1 nM
- selectivity for CDK6/cyclin D1 relative to CDK4/cyclin D1 (CDK6/cyclin D1): more than 10 times
- IC50 (CDK4/Cyclin D1): 5 to 10 nM

SMILES: CCN1CCN(c2cnc(Nc3ncc4ccc5ncc(C6CCCC6)n5c4n3)cc2C)CC1 [Compound I-32]
- IC50 (CDK6/cyclin D1): 5 to 10 nM
- IC50 (CDK4/Cyclin D1): 5 to 10 nM

SMILES: Cc1nc(Nc2ncc3ccc4ncc(C5CCCC5)n4c3n2)ccc1N1CCNCC1.Cl [Compound I-34]
- IC50 (PIM1): < 50 nM
- IC50 (FLT3): < 5 nM
- IC50 (CDK6/cyclin D1): < 1 nM
- selectivity for CDK6/cyclin D1 relative to CDK4/cyclin D1 (CDK6/cyclin D1): more than 10 times
- IC50 (CDK4/Cyclin D1): 5 to 10 nM

SMILES: CC1CN(c2ccc(Nc3ncc4ccc5ncc(C(C)C)n5c4n3)nc2)CCO1 (stereo not drawn) [Compound I-20]
- IC50 (CDK6/cyclin D1): 5 to 10 nM
- IC50 (CDK4/Cyclin D1): 5 to 10 nM

SMILES: COc1ccc2cc(Nc3ncc4ccc5ncc(C(C)C)n5c4n3)ccc2n1 [Compound I-30]
- IC50 (CDK6/cyclin D1): 50 to 100 nM
- IC50 (CDK4/Cyclin D1): 50 to 100 nM

SMILES: Fc1nc(Nc2ncc3ccc4ncc(C5CCCC5)n4c3n2)ccc1N1CCNCC1 [Compound I-37]
- IC50 (CDK6/cyclin D1): 5 to 10 nM
- IC50 (CDK4/Cyclin D1): 5 to 10 nM

SMILES: COc1cc(OC2CCN(C)CC2)ccc1Nc1ncc2ccc3ncc(C(C)C)n3c2n1 [Compound I-29]
- IC50 (CDK6/cyclin D1): 50 to 100 nM
- IC50 (CDK4/Cyclin D1): 50 to 100 nM

SMILES: CCN1CCN(c2ccc(Nc3ncc4ccc5ncc(C(C)C)n5c4n3)nc2C)CC1 [Compound I-7]
- IC50 (CDK6/cyclin D1): 5 to 10 nM
- selectivity for CDK6/cyclin D1 relative to CDK4/cyclin D1 (CDK6/cyclin D1): 2-3 times
- IC50 (CDK4/Cyclin D1): 5 to 10 nM

SMILES: Cc1cc(Nc2ncc3ccc4ncc(C5CCCC5)n4c3n2)ncc1N1CCOCC1 [Compound I-38]
- IC50 (PIM1): < 50 nM
- IC50 (FLT3): < 5 nM
- IC50 (CDK6/cyclin D1): 1 to 5 nM
- selectivity for CDK6/cyclin D1 relative to CDK4/cyclin D1 (CDK6/cyclin D1): about 4 times
- IC50 (CDK4/Cyclin D1): 10 to 20 nM

SMILES: Cl.c1cc(Nc2ncc3ccc4ncc(C5CCCC5)n4c3n2)ncc1N1CCNCC1 [Compound I-31]
- IC50 (PIM1): < 50 nM
- IC50 (FLT3): < 5 nM
- IC50 (CDK6/cyclin D1): < 1 nM
- selectivity for CDK6/cyclin D1 relative to CDK4/cyclin D1 (CDK6/cyclin D1): more than 5 times
- IC50 (CDK4/Cyclin D1): 1 to 5 nM

SMILES: CC(C)c1cnc2ccc3cnc(Nc4ccc(N5C[C@@H](C)N[C@@H](C)C5)cn4)nc3n12 [Compound I-12]
- IC50 (CDK6/cyclin D1): 5 to 10 nM
- IC50 (CDK4/Cyclin D1): 5 to 10 nM

SMILES: CC(C)c1cnc2ccc3cnc(Nc4ccc(N5CCC6(CCNCC6)C5)cn4)nc3n12 [Compound I-22]
- IC50 (CDK6/cyclin D1): 20 to 50 nM
- IC50 (CDK4/Cyclin D1): 20 to 50 nM

SMILES: COc1cc(OCCN(C)C)ccc1Nc1ncc2ccc3ncc(C(C)C)n3c2n1 [Compound I-28]
- IC50 (CDK6/cyclin D1): 50 to 100 nM
- IC50 (CDK4/Cyclin D1): 50 to 100 nM

SMILES: C[C@@H]1CN(c2ccc(Nc3ncc4ccc5ncc(C6CCCC6)n5c4n3)nc2)C[C@H](C)O1 [Compound I-39]
- IC50 (CDK6/cyclin D1): 10 to 20 nM
- selectivity for CDK6/cyclin D1 relative to CDK4/cyclin D1 (CDK6/cyclin D1): 2-3 times
- IC50 (CDK4/Cyclin D1): 20 to 50 nM

SMILES: CC(C)c1cnc2ccc3cnc(Nc4ccc(N5CC6(CNC6)C5)cn4)nc3n12 [Compound I-24]
- IC50 (CDK6/cyclin D1): 20 to 50 nM
- IC50 (CDK4/Cyclin D1): 20 to 50 nM

SMILES: CCN1CCN(c2ccc(Nc3ncc4ccc5ncc(C(C)C)n5c4n3)nc2)CC1 [Compound I-5]
- IC50 (CDK6/cyclin D1): < 1 nM
- IC50 (CDK4/Cyclin D1): < 1 nM

SMILES: CC(C)c1cnc2ccc3cnc(Nc4ccc(N5CCC6(CNC6)C5)cn4)nc3n12 [Compound I-23]
- IC50 (CDK6/cyclin D1): 20 to 50 nM
- IC50 (CDK4/Cyclin D1): 20 to 50 nM

Next, values leading:

- IC50 (PIM1): < 50 nM
- IC50 (FLT3): < 5 nM
- IC50 (CDK6/cyclin D1): 1 to 5 nM
- selectivity for CDK6/cyclin D1 relative to CDK4/cyclin D1 (CDK6/cyclin D1): about 4 times
- IC50 (CDK4/Cyclin D1): 10 to 20 nM
SMILES: Cc1cc(Nc2ncc3ccc4ncc(C(C)C)n4c3n2)ncc1N1CCOCC1 [Compound I-18]

- IC50 (CDK6/cyclin D1): < 1 nM
- IC50 (CDK4/Cyclin D1): < 1 nM
SMILES: CC(C)c1cnc2ccc3cnc(Nc4ccc(N5CCN(C)CC5)cn4)nc3n12 [Compound I-2, 9-Isopropyl-N-(5-(4-methylpiperazin-1-yl)pyridin-2-yl)imidazo[1′,2′:1,6]pyrido[2,3-d]pyrimidin-2-amine]

- IC50 (CDK6/cyclin D1): 20 to 50 nM
- IC50 (CDK4/Cyclin D1): 20 to 50 nM
SMILES: CC(C)c1cnc2ccc3cnc(Nc4ccc(N5CCCNCC5)cn4)nc3n12 [Compound I-15]

- IC50 (CDK6/cyclin D1): 5 to 10 nM
- IC50 (CDK4/Cyclin D1): 5 to 10 nM
SMILES: CC(C)c1cnc2ccc3cnc(Nc4ccc(N5CCN[C@@H](C)C5)cn4)nc3n12 [Compound I-10]

- IC50 (CDK6/cyclin D1): 5 to 10 nM
- IC50 (CDK4/Cyclin D1): 5 to 10 nM
SMILES: Cc1cc(Nc2ncc3ccc4ncc(C(C)C)n4c3n2)ncc1N1CCN(C)CC1 [Compound I-3]

- IC50 (CDK6/cyclin D1): 20 to 50 nM
- IC50 (CDK4/Cyclin D1): 20 to 50 nM
SMILES: CC(C)c1cnc2ccc3cnc(Nc4ccc(N5CCCCC5)cn4)nc3n12 [Compound I-16]

- IC50 (PIM1): < 50 nM
- IC50 (FLT3): < 5 nM
- IC50 (CDK6/cyclin D1): < 1 nM
- selectivity for CDK6/cyclin D1 relative to CDK4/cyclin D1 (CDK6/cyclin D1): more than 10 times
- IC50 (CDK4/Cyclin D1): 5 to 10 nM
SMILES: Cc1nc(Nc2ncc3ccc4ncc(C(C)C)n4c3n2)ccc1N1CCNCC1.Cl [Compound I-9]

- IC50 (CDK6/cyclin D1): 50 to 100 nM
- IC50 (CDK4/Cyclin D1): 50 to 100 nM
SMILES: CC(C)c1cnc2ccc3cnc(Nc4ccc(N5CCNCC5)cc4F)nc3n12 [Compound I-27]

- IC50 (PIM1): < 50 nM
- IC50 (FLT3): < 5 nM
- IC50 (CDK6/cyclin D1): < 1 nM
- selectivity for CDK6/cyclin D1 relative to CDK4/cyclin D1 (CDK6/cyclin D1): more than 10 times
- IC50 (CDK4/Cyclin D1): 5 to 10 nM
SMILES: Cc1cc(Nc2ncc3ccc4ncc(C5CCCC5)n4c3n2)ncc1N1CCNCC1.Cl [Compound I-33]

- IC50 (CDK6/cyclin D1): 5 to 10 nM
- selectivity for CDK6/cyclin D1 relative to CDK4/cyclin D1 (CDK6/cyclin D1): 2-3 times
- IC50 (CDK4/Cyclin D1): 10 to 20 nM
SMILES: CC(C)c1cnc2ccc3cnc(Nc4cc(F)c(N5CCNCC5)cn4)nc3n12.Cl [Compound I-13]

- IC50 (PIM1): < 50 nM
- IC50 (FLT3): < 5 nM
- IC50 (CDK6/cyclin D1): < 1 nM
- selectivity for CDK6/cyclin D1 relative to CDK4/cyclin D1 (CDK6/cyclin D1): more than 5 times
- IC50 (CDK4/Cyclin D1): 1 to 5 nM
SMILES: Cc1cc(Nc2ncc3ccc4ncc(C(C)C)n4c3n2)ncc1N1CCNCC1.Cl [Compound I-8]

- IC50 (CDK6/cyclin D1): 5 to 10 nM
- selectivity for CDK6/cyclin D1 relative to CDK4/cyclin D1 (CDK6/cyclin D1): 2-3 times
- IC50 (CDK4/Cyclin D1): 10 to 20 nM
SMILES: CCN1CCN(c2cnc(Nc3ncc4ccc5ncc(C(C)C)n5c4n3)cc2C)CC1 [Compound I-6]

- IC50 (CDK6/cyclin D1): 10 to 20 nM
- selectivity for CDK6/cyclin D1 relative to CDK4/cyclin D1 (CDK6/cyclin D1): 2-3 times
- IC50 (CDK4/Cyclin D1): 20 to 50 nM
SMILES: CC(C)c1cnc2ccc3cnc(Nc4ccc(N5CCNCC5)c(F)n4)nc3n12.Cl [Compound I-14]

- IC50 (CDK6/cyclin D1): 5 to 10 nM
- IC50 (CDK4/Cyclin D1): 5 to 10 nM
SMILES: Cc1nc(Nc2ncc3ccc4ncc(C(C)C)n4c3n2)ccc1N1CCN(C)CC1 [Compound I-4]

- IC50 (CDK6/cyclin D1): 10 to 20 nM
- IC50 (CDK4/Cyclin D1): 10 to 20 nM
SMILES: Fc1cc(Nc2ncc3ccc4ncc(C5CCCC5)n4c3n2)ncc1N1CCNCC1 [Compound I-36]

- IC50 (PIM1): < 50 nM
- IC50 (FLT3): < 5 nM
- IC50 (CDK6/cyclin D1): < 1 nM
- selectivity for CDK6/cyclin D1 relative to CDK4/cyclin D1 (CDK6/cyclin D1): more than 5 times
- IC50 (CDK4/Cyclin D1): 1 to 5 nM
SMILES: CC(C)c1cnc2ccc3cnc(Nc4ccc(N5CCNCC5)cn4)nc3n12.Cl [Compound I-1, 9-Isopropyl-N-(5-(piperazin-1-yl)pyridin-2-yl)imidazo[1′,2′:1,6]pyrido[2,3-d]pyrimidin-2-amine hydrochloride]

- IC50 (CDK6/cyclin D1): 5 to 10 nM
- IC50 (CDK4/Cyclin D1): 5 to 10 nM
SMILES: Cc1nc(Nc2ncc3ccc4ncc(C(C)C)n4c3n2)ccc1N1CCOCC1 [Compound I-19]

- IC50 (CDK6/cyclin D1): 5 to 10 nM
- IC50 (CDK4/Cyclin D1): 5 to 10 nM
SMILES: CC(C)c1cnc2ccc3cnc(Nc4ccc(N5CCNC(C)(C)C5)cn4)nc3n12 [Compound I-11]
